In patent publication US20220409510A1, “Polypeptides And Methods For Improving Skin Conditions” (Interk Peptide Therapeutics Limited, priority 2018, published 2022):

Assays:
[1] = system: MM1418-C1 lightly pigmented melanoma cells; test: Melanin content of melanoma cells after UVB radiation; assay type: cell-based; details: 10 μM for 24 hours prior to 2 kJ/m2 UVB; measured 24 hours later; vs untreated UVB cells; FIG. 20
Experimental: The ability of the polypeptide RSKAKNPLYRRRRRRRRR to alter melanin production was examined.
In brief, MM1418-C1 lightly pigmented melanoma cells were grown in 24 well culture plates and treated with 10 μM RSKAKNPLYRRRRRRRRR (“IK-3”) for 24 hours prior to being exposed to 2 kJ/m2 UVB radiation. Controls (not treated with RSKAKNPLYRRRRRRRRR) labelled “Con” and “UVB”, respectively, were exposed to either 0 or 2 kJ/m2 UVB radiation. Cell groups were returned to the incubator for 24 hours and then the levels of melanin and protein in the cells were measured spectrophotometrically. In each experiment triplicate samples were measured. Data shown in FIG. 19 indicate the average values±SEM (μg melanin/mg cell protein) exposed to 0 or 2 kJ/m2 UVB which had been pre-treated with 0 or 10 μM of RSKAKNPLYRRRRRRRRR 24 hours prior to being exposed to UVB radiation. The t-test (2-tailed) was used to determine statistical significance, *p<0.05, ***p<0.001.

[2] = system: CPDs in human skin explants; test: CPD formation in human skin explants after UV-irradiation; assay type: cell-based
Experimental: Human skin removed at elective surgery was cleaned, dissected and cut into pieces of approx. 5 mm×5 mm. Each piece was placed in a well of a 96 well plate, with individual plates prepared to assess the effects 3 hrs post treatment. All samples were performed in triplicate for each treatment. Skin was subjected to UV-radiation from solar-simulated UV source for 1.5 h (UVR), or non-irradiation (SHAM). Given that human skin is thicker than mouse skin, human skin explants were exposed to a radiation dose three times higher than that used for mouse skin, i.e., 20 J/cm2 versus 7 J/cm2, respectively, and the output spectrum of the laboratory solar simulator has previously been reported (Rybchyn MS et al, J Invest Dermatol. 2018 May; 138(5):1146-1156) and treated immediately after with a vehicle control, Calcitriol (1 nM) or the polypeptide IK34720 (SEQ ID NO: 3) at concentrations of 50 μM, 250 μM or 500 uM.
Samples harvested at 3 hrs were fixed, section, stained and quantified as described in Example 5.

primary keratinocytes = test: ATP levels in primary keratinocytes exposed to ssUV (CellTiter-Glo 2.0 Assay); assay type: cell-based; details: 1.5 hours after UVR, FIG. 4
Experimental: The influence of the polypeptide IK34720 (SEQ ID NO: 3) on intracellular ATP following UV exposure was assessed using the following protocol.
Primary keratinocytes were harvested as described above in Example 2 and were either exposed to ssUV-irradiation (UVR), as described above in Example 2 or not irradiated (SHAM), in the presence or absence of Calcitriol (positive control) or polypeptide IK34720 (SEQ ID NO: 3; RSKAKNPLYRRRRRRRRR), at the concentrations described in Example 2.
ATP levels were determined 1.5 hours after UVR using the CellTiter-Glo® 2.0 Assay (Promega, Wis., USA) as described previously (Rybchyn et al., vide supra, 2017). All data in FIG. 4 is shown as mean±SD. *p<0.05, **p<0.01. Cells were prepared and irradiated as described above.

TGFβRII = TGFβRII expression in UV irradiated dermal fibroblasts (Western analysis); assay type: cell-based, human; details: 1, 2.5, 5 and 10 μM added immediately after UV; 5 h post UV; primary fibroblasts; FIG. 3B
Experimental: The influence of the polypeptide IK34720 (SEQ ID NO: 3) on TGFβRII phosphorylation was assessed using the following protocol.
Human skin dermal fibroblasts were cultured from keratome biopsies of healthy adult human skin. Cells were between passages three and six. For UV irradiation, subconfluent cells were washed once with phosphate-buffered saline (PBS) and irradiated with UV. Immediately following irradiation, negative control (vehicle) or 1 μM, 2.5 μM, 5 μM and 10 μM of IK34720 (“1K” in FIG. 3B, SEQ ID NO: 3) were added to the cell cultures.
For Western analysis, nuclear extracts were prepared, membrane fractions were prepared and resolved on 8% SDS-polyacrylamide gel electrophoresis, transferred to polyvinylidene difluoride membrane, and reacted with primary antibodies. Blots were visualized and quantified.

[3] = target: T1, Human rheumatoid synovial fibroblast MMP-1 (Homo sapiens, UniProt P03956); test: MMP-1 activity in vitro (fluorogenic substrate); assay type: biochemical; details: 5, 10, 800 and 1000 μM; 8 nM activated enzyme; pH 7.2; FIG. 16
T1 construct: endogenous in cells; host or cells: human rheumatoid synovial fibroblasts (native proenzyme isolated from these cells)
T1 sequence (P03956 100-469): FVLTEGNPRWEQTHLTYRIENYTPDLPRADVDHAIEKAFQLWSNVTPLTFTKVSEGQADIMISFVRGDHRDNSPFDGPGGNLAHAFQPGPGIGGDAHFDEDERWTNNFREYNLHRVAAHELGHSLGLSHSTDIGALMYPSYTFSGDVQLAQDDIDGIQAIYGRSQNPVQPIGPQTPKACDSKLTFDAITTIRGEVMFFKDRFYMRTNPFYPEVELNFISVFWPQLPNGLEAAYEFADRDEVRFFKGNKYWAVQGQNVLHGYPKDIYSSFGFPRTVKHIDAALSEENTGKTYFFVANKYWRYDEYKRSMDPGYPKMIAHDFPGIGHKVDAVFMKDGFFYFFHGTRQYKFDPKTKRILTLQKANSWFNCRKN
Experimental: The effect of the polypeptide IK34720 (SEQ ID NO: 3) on MMP-1 activity was evaluated using the following protocol.
Human rheumatoid synovial fibroblast MMP-1 proenzyme, activated with APMA for 60 minutes at 37° C., was used as an active enzyme. The polypeptide IK34720 (SEQ ID NO: 3) at a concentration of 5 μM. 10 μM 800 μM and 1000 μM was pre-incubated with 8 nM activated enzyme in modified MOPS buffer pH 7.2 for 60 minutes at 37° C. The reaction was initiated by addition of […] Mca-Pro-Leu-Gly-Leu-Dap-Ala-Arg followed by a 2 hour incubation period. Determination of the amount of Mca-Pro-Leu-Gly formed was read spectrofluorimetrically at 340 nm/400 nm.

[4] = system: apoptotic cells in human skin explants; test: Apoptotic sunburn cells in human skin explants after UV-irradiation; assay type: cell-based; details: 500 μM
Experimental: FIGS. 14 and 15 illustrate the effect of the polypeptide IK34720 (SEQ ID NO: 3) on the number of apoptotic cells in human skin explants.
Skin explants were cultured irradiated and treated as described above for CPD, and subsequent to treatment were stained and quantified as described for Example 6.

RSKAKNPLYRRRRRRRRR [IK34720, 18-residue polypeptide: … with a C-terminal polyarginine region of 8 arginines]
melanin content of cells [1]: significantly decreased melanin content
percentage of CPD positive cells ([2]; 500 μM, 3 hrs, two individuals, FIG. 13A and B): statistically significantly reduced
cells having CPDs (stained cells) ([2]; 3 hrs post irradiation/treatment, Calcitriol 1 nM, IK34720 50, 250 or 500 uM, FIG. 12): fewer stained cells
ATP levels (primary keratinocytes): enhanced the ATP levels
TGFβRII expression (TGFβRII): restored TGFβRII expression in UV treated cells
MMP-1 activity [3]: inhibits MMP-1 activation in a dose dependent manner
number of apoptotic cells ([4]; 3 hrs post UV-irradiation, FIG. 14): statistically significantly reduces the number of apoptotic cells
number of apoptotic cells ([4]; 24 hrs post UV-irradiation, FIG. 15): statistically significantly reduces the number of apoptotic cells
